Measured values taken from US20050228180A1, “Alpha, omega-dicarboximide derivatives as useful uro-selective a1a adrenoceptor blockers” (priority 2002, published 2005).
Where a name gives a salt, the structure may show the parent alone.

Key:
α1B adrenoceptor = biological target: T1, α1B adrenoceptor (Rattus norvegicus, UniProt P15823); experiment: Radioligand binding, [3H] prazosin displacement, rat liver membranes; conditions: read-out: Affinity (Ki) α1B (Rat Liver)
T1 construct: from tissue; host or cells: rat liver membranes
T1 sequence (P15823 1-515): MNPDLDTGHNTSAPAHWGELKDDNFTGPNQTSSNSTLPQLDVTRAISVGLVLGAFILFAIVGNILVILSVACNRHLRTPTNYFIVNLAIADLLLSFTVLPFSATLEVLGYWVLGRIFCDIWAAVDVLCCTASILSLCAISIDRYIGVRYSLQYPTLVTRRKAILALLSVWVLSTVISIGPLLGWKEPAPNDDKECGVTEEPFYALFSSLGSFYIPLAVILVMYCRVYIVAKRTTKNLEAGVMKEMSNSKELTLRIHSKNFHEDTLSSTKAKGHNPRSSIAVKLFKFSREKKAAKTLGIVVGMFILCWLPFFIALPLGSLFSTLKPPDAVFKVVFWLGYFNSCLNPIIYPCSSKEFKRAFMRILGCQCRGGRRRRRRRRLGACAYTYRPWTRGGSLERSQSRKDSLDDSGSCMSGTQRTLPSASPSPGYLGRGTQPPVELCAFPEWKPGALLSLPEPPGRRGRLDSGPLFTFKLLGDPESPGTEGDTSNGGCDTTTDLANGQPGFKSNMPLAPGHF
How it was run: (§1)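 Displacement of [3H]prazosin measured by filtration and counting, with Ki from IC50 via Cheng–Prusoff and nonspecific binding set by 300 nM prazosin. Native rat submaxillary (α1A) or liver (α1B) membranes, 150-250 μg protein, 1 h at 24-25° C in Tris/EDTA pH 7.4.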

[1] = biological target: T2, α1A adrenoceptor (prostate) (Rattus norvegicus, UniProt P43140); experiment: In vitro functional assay, isolated prostate, phenylepinephrine contraction; type: cell-based; conditions: for Selectivity α1B/α1A / Selectivity α1D/α1A: functional, from pKB; for Kb: read-out: α Adrenoceptor Subtype (pKB) α1A (converted)
T2 construct: from tissue; host or cells: isolated prostate tissue
T2 sequence (P43140 1-466): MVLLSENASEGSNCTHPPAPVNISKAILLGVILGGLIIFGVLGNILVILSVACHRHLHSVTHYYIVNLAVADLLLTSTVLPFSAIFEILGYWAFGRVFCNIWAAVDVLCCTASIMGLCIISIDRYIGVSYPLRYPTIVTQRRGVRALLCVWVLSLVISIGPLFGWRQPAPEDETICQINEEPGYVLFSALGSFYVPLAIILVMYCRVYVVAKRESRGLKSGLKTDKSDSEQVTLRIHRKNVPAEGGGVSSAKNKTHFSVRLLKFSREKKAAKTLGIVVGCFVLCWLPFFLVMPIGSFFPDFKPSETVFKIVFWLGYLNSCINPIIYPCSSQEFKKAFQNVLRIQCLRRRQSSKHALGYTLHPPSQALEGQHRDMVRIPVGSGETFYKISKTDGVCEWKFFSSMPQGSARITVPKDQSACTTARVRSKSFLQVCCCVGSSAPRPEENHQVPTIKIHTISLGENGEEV
Excerpt: (§2) In order to study selectivity of action of these compounds towards different a-adrenoceptor subtypes, the ability of these compounds to antagonise (α1D) prostate (α1A) and spleen (α1B) was studied. Aorta and spleen tissues were isolated from urethane anaesthetized (1.5 g/kg) male wister rats. Isolated tissues were mounted in organ bath containing Krebs Henseleit buffer of the following composition (mM): NaCl 118; KCl 4.7; CaCl2 2.5; MgSO4 7H2O 1.2; NaHCO3 25; KH2PO4 1.2; glucose 11.5. Buffer was maintained at 37° C. and aereated with a mixture of 95% O2 and 5% CO2. A resting tension of 2 g (aorta) or 1 g (spleen and prostate) was applied to tissues. Contractile response was monitored using a force displacement transducer and recorded on chart recorders. Tissues were allowed to equilibrate for 2 hours. At the end of equilibration period, concentration response curves to norepinephrine (aorta) and phenylepinephrine (spleen and prostate) were obtained in the absence and presence of tested compound (at concentration of […]). Antagonist affinity was calculated and expressed as pKB values in Table II.

[2] = biological target: T3, α1B adrenoceptor (spleen) (Rattus norvegicus, UniProt P15823); experiment: In vitro functional assay, isolated spleen, phenylepinephrine contraction; type: cell-based; conditions: for Kb: read-out: α Adrenoceptor Subtype (pKB) α1B (converted)
T3 construct: Isolated tissues were mounted in organ bath containing Krebs Henseleit buffer; from tissue; host or cells: isolated rat spleen
T3 sequence (P15823 1-515): T1 sequence (P15823 1-515)
Excerpt: as §2

α1A adrenoceptor = biological target: T4, α1A adrenoceptor (Rattus norvegicus, UniProt P43140); experiment: Radioligand binding, [3H] prazosin displacement, rat submaxillary membranes; conditions: for Ki: [3H] prazosin displacement, rat submaxillary membranes, read-out: Affinity (Ki) α1A (Rat Submaxillary); for α1B/α1A: ratio of binding affinities, rat liver / rat submaxillary
T4 construct: from tissue; host or cells: rat submaxillary gland membranes
T4 sequence (P43140 1-466): T2 sequence (P43140 1-466)
How it was run: as §1

α1D adrenoceptor (aorta) = biological target: T5, α1D adrenoceptor (aorta) (Rattus norvegicus, UniProt P23944); experiment: In vitro functional assay, isolated aorta, norepinephrine contraction; type: cell-based; conditions: for Kb: read-out: α Adrenoceptor Subtype (pKB) α1D (converted)
T5 construct: Isolated tissues were mounted in organ bath containing Krebs Henseleit buffer; from tissue; host or cells: isolated rat aorta
T5 sequence (P23944 1-561): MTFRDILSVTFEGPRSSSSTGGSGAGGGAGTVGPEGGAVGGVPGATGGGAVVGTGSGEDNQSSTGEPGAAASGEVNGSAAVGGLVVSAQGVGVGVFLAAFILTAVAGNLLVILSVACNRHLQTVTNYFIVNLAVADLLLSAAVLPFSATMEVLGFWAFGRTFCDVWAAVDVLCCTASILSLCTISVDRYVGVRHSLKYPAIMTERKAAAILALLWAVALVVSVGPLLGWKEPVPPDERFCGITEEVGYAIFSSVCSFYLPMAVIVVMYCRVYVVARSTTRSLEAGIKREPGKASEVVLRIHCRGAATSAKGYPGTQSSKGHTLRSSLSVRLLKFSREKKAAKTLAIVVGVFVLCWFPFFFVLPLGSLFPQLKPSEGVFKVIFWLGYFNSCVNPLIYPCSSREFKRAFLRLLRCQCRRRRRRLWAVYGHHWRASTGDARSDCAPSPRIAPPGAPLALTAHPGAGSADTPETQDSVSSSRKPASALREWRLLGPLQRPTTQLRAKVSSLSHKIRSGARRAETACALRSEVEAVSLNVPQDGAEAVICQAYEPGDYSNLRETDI
Excerpt: as §2

[3] = rat prostate, phenylepinephrine

Compound	Ki (α1B adrenoceptor) [nM]	Selectivity α1B/α1A [1]	Selectivity α1D/α1A [1]	Kb [1, 3] [nM]	Kb [2] [nM]	Ki (α1A adrenoceptor) [nM]	Kb (α1D adrenoceptor (aorta)) [nM]	α1B/α1A (α1A adrenoceptor)	α Adrenoceptor Subtype (pKB) α1A [1, 3]	α Adrenoceptor Subtype (pKB) α1B [2]	α Adrenoceptor Subtype (pKB) α1D (α1D adrenoceptor (aorta))
CCOc1ccccc1[N+]1([O-])CC[N+]([O-])(CCCN2C(=O)C3CC=CCC3C2=O)CC1 (centres unmarked) [Compound No. 10, 2-[3-{4-(2-Ethoxyphenyl)piperazin-1-yl, 1,4-N,N-dioxide}propyl]-3a,4,7,7a-tetrahydro-1H-isoindole-1,3(2H)-dione]	> 1000	13	40	1.48	18.6	> 1000	58.9				
CCOc1ccccc1N1CCN(CC(O)CN2C(=O)C3CC=CCC3C2=O)CC1 (centres unmarked) [Compound No. 11, 2-[3-{4-(2-Ethoxyphenyl)piperazin-1-yl}-2-hydroxypropyl]-3a,4,7,7a-tetrahydro-1H-isoindole-1,3-(2H)-dione hydrochloride]	191	0.1	0.5	7.24	0.759	6.4	3.72	30			
CCOc1ccccc1N1CCN(CCCN2C(=O)C3CC(O)C(Cl)CC3C2=O)CC1.Cl (centres unmarked) [Compound No. 17]		347	3.9					50	9.54	7	9.07
CC(C)Oc1ccc(O)cc1N1CCN(CCCN2C(=O)C3CC=CCC3C2=O)CC1.Cl (centres unmarked) [Compound No. 21, 2-[3-{4-(2-Isopropoxy-5-hydroxyphenyl)piperazin-1-yl}propyl]-3a,4,7,7a-tetrahydro-1H-isoindole-1,3(2H)-dione hydrochloride]	643	15	5.24	4.68	70.8	3.4	24.5	189			
CC(C)Oc1cc([N+](=O)[O-])ccc1N1CCN(CCCN2C(=O)C3CC=CCC3C2=O)CC1 (centres unmarked) [Compound No. 25, 2-[3-{4-(2-Isopropoxy-4-nitrophenyl)piperazin-1-yllpropyl]-3a,4,7,7a-tetrahydro-1H-isoindole-1,3(2H)-dione hydrochloride]	173	22	0.93	4.57	100	0.86	4.27	201			
COc1ccccc1N1CCN(CC(O)CN2C(=O)C3CC=CCC3C2=O)CC1.Cl (centres unmarked) [compound 06, 2-[3-{4-(2-Methoxyphenyl)piperazin-1-yl}-2-hydroxypropyl]-3a,4,7,7a-tetrahydro-1H-isoindole-1,3(2H)-dione hydrochloride]	263		0.56	6.61		38	3.72	7			

Continued, in another order:

Ki (α1B adrenoceptor) [nM]	Selectivity α1B/α1A [1]	Selectivity α1D/α1A [1]	Kb [1, 3] [nM]	Kb [2] [nM]	Ki (α1A adrenoceptor) [nM]	Kb (α1D adrenoceptor (aorta)) [nM]	α1B/α1A (α1A adrenoceptor)	Compound	α Adrenoceptor Subtype (pKB) α1A [1, 3]	α Adrenoceptor Subtype (pKB) α1B [2]	α Adrenoceptor Subtype (pKB) α1D (α1D adrenoceptor (aorta))
118	60	4.2	1.66	100	1.7	6.92	69	CCOc1ccccc1N1CCN(CCCN2C(=O)C3CC(O)C(O)CC3C2=O)CC1 (centres unmarked) [Compound No. 12, 2-[3-{4-(2-Ethoxyphenyl)piperazin-1-yl}propyl]-5,6-dihydroxy-3a,4,5,6,7,7a-hexahydro-1H-isoindole-1,3(2H)-dione]			
85	17	0.7	3.24	55	0.36	2.29	236	CC(C)Oc1ccccc1N1CCN(CCCN2C(=O)C3CC(O)C(O)CC3C2=O)CC1 (centres unmarked) [Compound No. 13, 2-[3-{4-(2-Isopropoxyphenyl)piperazin-1-yl}propyl]-5,6-dihydroxy-3a,4,5,6,7,7a-hexahydro-1H-isoindole-1,3(2H)-dione]			
104	87	3.4	0.794	69.2	0.23	2.69	452	CC(C)Oc1ccccc1N1CCN(CCCN2C(=O)C3CC4OC4CC3C2=O)CC1 (centres unmarked) [Compound No. 19, 2-[3-{4-(2-Isopropoxyphenyl)piperazin-1-yl}propyl]-5,6-epoxy-3a,4,5,6,7,7a-hexahydro-1H-isoindole-1,3(2H)-dione]			
92	240	2.5	0.427	102	0.28	1.07	328	CC(C)Oc1ccccc1N1CCN(CCCN2C(=O)C3CCC(O)CC3C2=O)CC1 (centres unmarked) [Compound No. 20, 2-[3-{4-(2-Isopropoxyphenyl)piperazin-1-yl}propyl]-5-hydroxy-3a,4,5,6,7,7a-hexahydro-1H-isoindole-1,3(2H)-dione]			
41	45	1.4	0.977	43.7	0.24	1.41	171	CC(C)Oc1ccccc1N1CCN(CCCN2C(=O)C3CC(O)C(Cl)CC3C2=O)CC1.Cl (centres unmarked) [Compound No. 28, 2-[3-{4-(2-Isopropoxyphenyl)piperazin-1-yl}propyl]-5-chloro-6-hydroxy-3a,4,5,6,7,7a-hexahydro-1H-isoindole-1,3(2H)-dione hydrochloride]			
142		18	0.363		1.2	6.46	118	CC(C)Oc1ccccc1N1CCN(CCCN2C(=O)C3CCCC(O)C3C2=O)CC1.Cl (centres unmarked) [Compound No. 60, 2-[3-{4-(2-Isopropoxyphenyl)piperazin-1-yl}-propyl]4-hydroxy-3a,4,5,6,7,7a-hexahydro-1H-isoindole-1,3(2H)-dione hydrochloride]			
